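All cell lines were grown in 96-well plates and treated with compound for 48 hours. Abbreviation: GI50, concentration required for 50% inhibition of growth.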 Calls of active or inactive are those of the source. No stated cut-off is given here; in the data, active = GI50 up to about 1.1 µM and inactive = higher.
Legend:
Assay in all cases: NCI tumour cell line growth inhibition, 48 h
SF-268 = system: SF-268
NCI-H522 = system: NCI-H522
RPMI-8226 = system: RPMI-8226
COLO 205 = system: COLO 205
OVCAR-5 = system: OVCAR-5
CCRF-CEM = system: CCRF-CEM
LOX IMVI = system: LOX IMVI
U-251 = system: U-251
OVCAR-8 = system: OVCAR-8
MOLT-4 = system: MOLT-4
OVCAR-3 = system: OVCAR-3
SNB-19 = system: SNB-19
HCC 2998 = system: HCC 2998
EKVX = system: EKVX
SN12C = system: SN12C
A498 = system: A498

Measured: GI50

CC(=O)c1sc(-c2nc(C)c(C(=O)/C=C\c3ccc(/C=C\C(=O)c4sc(-c5nc(C)c(C(C)=O)s5)nc4C)cc3)s2)nc1C
inactive: SF-268 > 100 µM | NCI-H522 > 100 µM | RPMI-8226 50.5 µM | COLO 205 > 100 µM | OVCAR-5 > 100 µM | CCRF-CEM 80.7 µM | LOX IMVI > 100 µM | U-251 > 100 µM | OVCAR-8 > 100 µM | MOLT-4 > 100 µM | OVCAR-3 > 100 µM | SNB-19 > 100 µM | HCC 2998 > 100 µM | EKVX > 100 µM | SN12C > 100 µM

COc1ccc(Cc2c(=O)[nH]nc3ccccc23)cc1
inactive: SF-268 > 100 µM | RPMI-8226 > 100 µM | COLO 205 > 100 µM | OVCAR-5 > 100 µM | CCRF-CEM > 100 µM | LOX IMVI > 100 µM | OVCAR-8 90.6 µM | MOLT-4 > 100 µM | A498 > 100 µM | OVCAR-3 > 100 µM | SNB-19 > 100 µM | HCC 2998 > 100 µM | EKVX > 100 µM | SN12C > 100 µM

CCCCCCCCCCC(=O)CC(=O)c1c(O)cccc1O
inactive: SF-268 41.1 µM | NCI-H522 28.1 µM | RPMI-8226 21.1 µM | COLO 205 31 µM | OVCAR-5 19.7 µM | LOX IMVI 18.7 µM | U-251 21.5 µM | OVCAR-8 35.7 µM | MOLT-4 20.4 µM | A498 30.9 µM | OVCAR-3 24.2 µM | SNB-19 61.8 µM | HCC 2998 27.8 µM | EKVX 38.5 µM | SN12C 29.3 µM

CCCCn1c2ccccc2c2ccc3c(c21)C(=O)C=CC3=O
inactive: SF-268 > 100 µM | NCI-H522 > 100 µM | RPMI-8226 > 100 µM | COLO 205 > 100 µM | OVCAR-5 > 100 µM | LOX IMVI > 100 µM | U-251 > 100 µM | OVCAR-8 > 100 µM | MOLT-4 54.8 µM | A498 > 100 µM | OVCAR-3 > 100 µM | SNB-19 > 100 µM | HCC 2998 > 100 µM | SN12C > 100 µM

Cc1ccc(-c2cc(=O)c3cc(C)c(C)c(C(=O)O)c3o2)cc1[N+](=O)[O-]
inactive: SF-268 > 100 µM | NCI-H522 > 100 µM | RPMI-8226 > 100 µM | COLO 205 > 100 µM | OVCAR-5 > 100 µM | CCRF-CEM > 100 µM | LOX IMVI > 100 µM | U-251 > 100 µM | OVCAR-8 > 100 µM | MOLT-4 > 100 µM | OVCAR-3 > 100 µM | SNB-19 > 100 µM | EKVX > 100 µM | SN12C > 100 µM

O=C(CCN1CCCC1)CC(c1ccccc1)c1c(O)c2ccccc2oc1=O (stereo not given)
inactive: SF-268 > 100 µM | NCI-H522 > 100 µM | RPMI-8226 > 100 µM | COLO 205 > 100 µM | CCRF-CEM > 100 µM | LOX IMVI > 100 µM | U-251 > 100 µM | OVCAR-8 > 100 µM | MOLT-4 > 100 µM | OVCAR-3 > 100 µM | SNB-19 > 100 µM | HCC 2998 > 100 µM | EKVX > 100 µM | SN12C > 100 µM

O=C(O)CCC(N/C=C1/N=C(c2ccccc2)OC1=O)C(=O)O (stereo not given)
inactive: SF-268 > 100 µM | NCI-H522 > 100 µM | RPMI-8226 > 100 µM | COLO 205 > 100 µM | OVCAR-5 > 100 µM | CCRF-CEM > 100 µM | U-251 > 100 µM | OVCAR-8 > 100 µM | MOLT-4 > 100 µM | A498 > 100 µM | OVCAR-3 > 100 µM | SNB-19 > 100 µM | HCC 2998 > 100 µM | EKVX > 100 µM | SN12C > 100 µM

CSC(=S)c1ccc(C(=S)SC)cc1
inactive: SF-268 > 100 µM | NCI-H522 > 100 µM | RPMI-8226 > 100 µM | COLO 205 > 100 µM | OVCAR-5 > 100 µM | LOX IMVI > 100 µM | U-251 > 100 µM | OVCAR-8 > 100 µM | MOLT-4 > 100 µM | A498 > 100 µM | OVCAR-3 > 100 µM | SNB-19 > 100 µM | HCC 2998 > 100 µM | EKVX > 100 µM | SN12C > 100 µM

COc1cccc2c1N[S@](=O)S2
inactive: SF-268 76 µM | NCI-H522 86.1 µM | RPMI-8226 63.4 µM | CCRF-CEM 36.7 µM | LOX IMVI 50.8 µM | U-251 39.3 µM | MOLT-4 42.1 µM | OVCAR-3 > 100 µM | SNB-19 38.1 µM | EKVX > 100 µM | SN12C 63.5 µM

Cn1c(N)nc(=O)c2c1N(C1OC(CO)C(O)C1O)CN2Cc1ccccc1 (stereo not given)
inactive: SF-268 > 100 µM | NCI-H522 > 100 µM | RPMI-8226 > 100 µM | COLO 205 > 100 µM | OVCAR-5 > 100 µM | U-251 > 100 µM | OVCAR-8 > 100 µM | MOLT-4 > 100 µM | A498 > 100 µM | OVCAR-3 > 100 µM | SNB-19 > 100 µM | HCC 2998 > 100 µM | EKVX > 100 µM | SN12C > 100 µM

COC(=O)C(C(=O)C(=O)Nc1ccc([N+](=O)[O-])cc1[N+](=O)[O-])c1nc2ccc(Cl)cc2nc1O (stereo not given)
inactive: SF-268 > 100 µM | RPMI-8226 89.9 µM | COLO 205 > 100 µM | OVCAR-5 > 100 µM | CCRF-CEM > 100 µM | LOX IMVI > 100 µM | OVCAR-8 > 100 µM | MOLT-4 73.1 µM | A498 44.2 µM | OVCAR-3 66.4 µM | SNB-19 > 100 µM | HCC 2998 > 100 µM | EKVX 40.8 µM | SN12C > 100 µM

O=C(O)OC12CCCCCC1C(=O)C1CCCCC12 (stereo not given)
inactive: SF-268 61.5 µM | NCI-H522 65.8 µM | RPMI-8226 43.1 µM | COLO 205 > 100 µM | CCRF-CEM > 100 µM | LOX IMVI > 100 µM | U-251 > 100 µM | OVCAR-8 > 100 µM | MOLT-4 46 µM | SNB-19 89.5 µM | EKVX 82.4 µM | SN12C > 100 µM

Cc1nc2ccc(N)cc2nc1O
inactive: RPMI-8226 > 100 µM | COLO 205 > 100 µM | OVCAR-5 > 100 µM | CCRF-CEM > 100 µM | LOX IMVI > 100 µM | U-251 > 100 µM | OVCAR-8 > 100 µM | MOLT-4 > 100 µM | A498 > 100 µM | OVCAR-3 > 100 µM | SNB-19 > 100 µM | HCC 2998 > 100 µM | EKVX > 100 µM

O=C1OC(c2ccccc2)=N/C1=C\c1cccc2ccccc12
inactive: SF-268 > 100 µM | NCI-H522 > 100 µM | RPMI-8226 > 100 µM | COLO 205 > 100 µM | OVCAR-5 > 100 µM | CCRF-CEM > 100 µM | LOX IMVI > 100 µM | U-251 > 100 µM | OVCAR-8 > 100 µM | MOLT-4 > 100 µM | A498 > 100 µM | OVCAR-3 > 100 µM | SNB-19 > 100 µM | HCC 2998 > 100 µM | SN12C > 100 µM

— ChEMBL document CHEMBL1201862, “PubChem BioAssay data set” (2004)
